Patent US5462926A (Biomeasure, Inc., priority 1993, dated 1995)
Where two headings read alike, the source gives them in different places. Where a SMILES comes first, the peptide text is derived from it. Bridges are numbered along the chain shown (N, C = ends). [ ]: non-standard residue; d: D form. 2Nal = N[C@@H](Cc1ccc2ccccc2c1)C(=O)O; d2Nal = N[C@H](Cc1ccc2ccccc2c1)C(=O)O; Lys(Et2) = CCN(CC)CCCC[C@H](N)C(=O)O

Columns and labels:
[1] = target: T1, NMB receptor (Rattus norvegicus, UniProt P24053); experiment: [3H]inositol phosphates in NMB-R transfected cells (alone or NMB-stimulated); type: cell-based; set-up: a full length NMB-preferring bombesin receptor clone generated from rat esophagus; expressed in transfected cells; details: NMB-R transfected cells; for [3H]IP, analog Alone (10 μM): analog 10 μM alone, control 13 ± 3; for [3H]IP, analog Plus NMB (3 nM): analog 10 μM plus NMB 3 nM, NMB without analog 186 ± 58; for IC50 / effect at 10 μM on NMB-stimulated increase in [3H]IP: 3 nM NMB
T1 sequence (P24053 1-390): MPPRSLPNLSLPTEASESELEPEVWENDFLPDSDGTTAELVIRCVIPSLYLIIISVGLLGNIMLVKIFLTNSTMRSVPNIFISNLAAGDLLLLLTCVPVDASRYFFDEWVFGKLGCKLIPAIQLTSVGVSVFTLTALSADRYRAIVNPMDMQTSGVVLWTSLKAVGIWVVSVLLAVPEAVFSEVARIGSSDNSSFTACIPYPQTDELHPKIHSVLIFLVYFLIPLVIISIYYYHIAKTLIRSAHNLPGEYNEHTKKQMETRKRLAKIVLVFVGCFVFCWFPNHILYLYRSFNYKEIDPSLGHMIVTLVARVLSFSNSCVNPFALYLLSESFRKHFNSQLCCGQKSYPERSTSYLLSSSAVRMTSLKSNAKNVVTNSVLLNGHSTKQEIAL
Protocol: As described previously [Wada, E., et al. Neuron 6:421 (1991)], BALB 3T3 cells expressing a stably transfected rat NMB receptor (NMB-R transfected cells) were obtained using calcium phosphate precipitation of a full length NMB-preferring bombesin receptor clone generated from rat esophagus and subcloned into a modified version of the pCD2 plasmid. Cells were passaged every 3-4 days at confluence, using 0.1% trypsin in 1 mM EDTA. Rat glioblastoma C-6 tumor cells were maintained similarly and were passaged weekly at confluence. Both cell lines were cultured at 37° C. in a 5% CO2 atmosphere. Rat AR 42J pancreatic acinar cells were cultured in Dulbecco's modified Eagle's medium (DMEM) without antibiotics and supplemented with 10% (vol/vol) fetal calf serum. The incubation atmosphere consisted of 10% CO2 -90% humidified air at 37° C.
Measurement of phosphoinositides
Total phosphoinositides in C-6 cells and in NMB-R transfected cells were determined as described previously, with minor modifications [Benya, R. V. et al. Mol. Pharmacol. 42:1058 (1992); and Wang, L-H. et al. Biochem. Jo 286:641 (1992)]. Cells were grown to confluence in 24-well plates and then loaded with 100 μCi/ml myo-[2-^3 H]inositol in Dulbecco's modified essential medium with 2% fetal bovine serum at 37° C. for 48 hrs. Cells were washed and incubated in phosphoinositide buffer (standard buffer additionally containing 10 mM LiCl, 20 mM HEPES, 2 mM CaCl2, 2% BSA, and 1.2 mM MgSO4) for 15 min and then for 60 min at 37° C. with agonists at various concentrations or with 3 nM NMB (a half-maximal effective concentration) and possible antagonists at different concentrations. Reactions were halted using ice-cold 1% HCl in methanol, and the inositol phosphates (IP) were isolated as described previously [Bologna, M. et al. Cancer 63:1714 (1989); and Endo, T. et al. J. Endocrinolo 131:313 (1991)]. Briefly, after loading of the anion exchange column, free [^3 H]glycerophosphorylinositol was removed by washing with 5 mM disodium tetraborate in 60 mM sodium formate. Total [^3 H]inositol phosphates were then eluted using 100 mM formic acid in 1.0M ammonium formate as described previously [Benya, R. V. et al. Mol. Pharmacol. 42:1058 (1992); and Wang, L-H. et al. Biochem. J. 286:641 (1992 )].

[2] = target: T2, rat NMB receptor (Rattus norvegicus, UniProt P24053); experiment: Binding of 125I-[D-Tyr0]NMB to NMB-R transfected BALB 3T3 cells; details: for fold decrease in NMB receptor affinity compared with cyclo SS-octa (#1): structure-function comparison from Table 1
T2 construct: a full length NMB-preferring bombesin receptor clone generated from rat esophagus; expressed in transfected cells
T2 sequence (P24053 1-390): T1 sequence (P24053 1-390)
Protocol: Cells were passaged every 3-4 days at confluence, using 0.1% trypsin in 1 mM EDTA. Rat glioblastoma C-6 tumor cells were maintained similarly and were passaged weekly at confluence. Both cell lines were cultured at 37° C. in a 5% CO2 atmosphere. Rat AR 42J pancreatic acinar cells were cultured in Dulbecco's modified Eagle's medium (DMEM) without antibiotics and supplemented with 10% (vol/vol) fetal calf serum. The incubation atmosphere consisted of 10% CO2 -90% humidified air at 37° C.

[3] = target: GRP receptor (Rattus norvegicus, UniProt P52500); experiment: Amylase release from rat pancreatic acini (alone or Bn-stimulated); type: cell-based; set-up: from tissue; host or cells: dispersed pancreatic acini; details: for Amylase Release, analog Alone (10 μM): analog 10 μM alone, control 4 ± 1; for Amylase Release, analog Plus Bn (0.3 nM): analog 10 μM plus Bn 0.3 nM, Bn without analog 15 ± 1; for IC50: read-out: IC50 Amylase Release, GRP Receptor, Rat Pancreatic Acini
GRP receptor, sequence (P52500 whole entry): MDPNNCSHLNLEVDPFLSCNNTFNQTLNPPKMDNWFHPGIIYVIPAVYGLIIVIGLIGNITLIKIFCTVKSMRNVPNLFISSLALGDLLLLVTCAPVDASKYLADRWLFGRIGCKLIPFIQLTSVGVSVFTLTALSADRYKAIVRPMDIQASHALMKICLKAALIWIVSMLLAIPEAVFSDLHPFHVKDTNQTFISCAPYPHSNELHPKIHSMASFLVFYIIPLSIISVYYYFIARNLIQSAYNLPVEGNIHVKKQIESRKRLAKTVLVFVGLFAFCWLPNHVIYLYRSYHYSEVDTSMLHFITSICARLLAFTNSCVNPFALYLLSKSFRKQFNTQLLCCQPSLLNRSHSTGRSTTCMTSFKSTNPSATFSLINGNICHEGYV
Protocol: pancreatic acini or [^3 H]myo[2H]inositolloaded NMBR transfected cell
were incubated either with no additives, the somatostatin octapeptide
analog, Bn, or NMB, or a combination for 30 min at 37° C.. Amylase
release from pancreatic acini was expressed at the indicated percent of
the total cellular amylase released during the incubation. [^3 H]IP i
expressed in dpm's. To test for inhibitory effects, the effect of
somatostatin analog (10 μM) was determined on 0.3 nM Bnstimulated

[4] = target: T3, GRP receptors on rat pancreatic acini (Rattus norvegicus, UniProt P52500); experiment: Binding of 125I-[Tyr4]bombesin to pancreatic acini; details: read-out: Ki 125I-[Tyr4]Bn Binding, GRP Receptor, Rat Pancreatic Acini; Ki by Cheng method
T3 construct: from tissue; host or cells: dispersed pancreatic acini
T3 sequence (P52500 whole entry): as above
Text: Nonsaturable binding was<10% of total binding in all experiments.

[5] = target: T4, NMB receptors on C-6 cells (Rattus norvegicus, UniProt P24053); experiment: Binding of 125I-[D-Tyr0]NMB to C-6 glioblastoma cells; details: Ki by Cheng method, read-out: Ki 125I-NMB Binding, NMB Receptor, C-6 Cells
T4 construct: endogenous in cells; host or cells: rat glioblastoma C-6 cells
T4 sequence (P24053 1-390): T1 sequence (P24053 1-390)
Protocol: Binding of ^125 I-[D-Tyr^0 ]NMB to C-6 glioblastoma and NMB-R transfected cells
Binding studies using rat glioblastoma C-6 or NMB-R transfected cells were performed as described previously [Benya, R. V. et al. Mol. Pharmacol. 42:1058 (1992); and Wang, L-H. et al. Biochem. J. 286:641 (1992)] by suspending disaggregated cells in binding buffer, which was composed of standing buffer ([…], 7.7 mM KCl, 1.0 mM EGTA, 0.02% soybean trypsin inhibitor) additionally containing 50 mM HEPES, 1 mM MgCl2, 1.5 mM CaCl2, 2.2 mM KH2 PO4, 0,015% glutamine, and 0.2% BSA (w/v) (pH 7.4). Incubations contained 75 pM ^125 I-[D-Tyr^0 ]NMB and 15×10^6 C-6 cells/ml or 2×10^6 NMB-R transfected cells/ml, for 60 min at 22° C. Nonsaturable binding of ^125 I-[D-Tyr^0 ]NMB was the amount of radioactivity associated with C-6 cells or NMB-R transfected cells when the incubation mixture contained […] NMB. Nonsaturable binding was<15% of total binding in all experiments; all values are reported herein as saturable binding (i.e., total minus nonsaturable binding).

[6] = read-out: IC50 NMB-stimulated [3H]IP, NMB Receptor, Transfected Cells
[7] = read-out: IC50 NMB-stimulated [3H]IP, Transfected Cells (values in μM)
[8] = NMB-R transfected BALB 3T3 cells, Ki by Cheng method, read-out: Ki 125I-NMB Binding, NMB Receptor, Transfected Cells
[9] = NMB-R transfected cells, value or range given for a group, read-out: K1, 125I-NMB binding to NMB-R transfected cells (text)

| Compound | [3H]IP, analog Alone (10 μM) [1] [dym × 10^3] | [3H]IP, analog Plus NMB (3 nM) [1] [dym × 10^3] | fold decrease in NMB receptor affinity compared with cyclo SS-octa (#1) [2] [fold] | Amylase Release, analog Alone (10 μM) [3] [% total] | Amylase Release, analog Plus Bn (0.3 nM) [3] [% total] | Ki [4] [µM] | IC50 [1, 6] [µM] | IC50 [1, 7] [µM] | Ki [2, 8] [µM] | fold by which cyclo SS-octa is more potent than the analog, 125I-NMB binding ([2]; NMB-R transfected cells) [fold] | Ki [2, 9] [µM] | IC50 [3] [µM] | Ki [5] [µM] | effect at 10 μM on NMB-stimulated increase in [3H]IP [1] |
| --- | --- | --- | --- | --- | --- | --- | --- | --- | --- | --- | --- | --- | --- | --- |
| NCCCC[C@@H]1NC(=O)[C@@H](Cc2c[nH]c3ccccc23)NC(=O)[C@H](Cc2ccc(O)cc2)NC(=O)[C@@H](NC(=O)[C@H](N)Cc2ccc3ccccc3c2)CSSC[C@@H](C(=O)N[C@@H](Cc2ccc3ccccc3c2)C(N)=O)NC(=O)[C@H](Cc2ccc3ccccc3c2)NC1=O [Analog #3, H2 -D-Nal-Cys-Tyr-D-Trp-Lys-Nal-Cys-Nal-NH2] (H-[d2Nal]CY[dW]K[2Nal]C[2Nal]-NH2; disulfide 2-7) | 11 ± 1 | 65 ± 15 | 2 to 3 | 3 ± 1 | 15 ± 1 | – | – | – | – | – | – | – | – | – |
| C[C@H](N)C(=O)NCC(=O)N[C@H]1CSSC[C@@H](C(=O)O)NC(=O)[C@H](CO)NC(=O)[C@H]([C@@H](C)O)NC(=O)[C@H](Cc2ccccc2)NC(=O)[C@H]([C@@H](C)O)NC(=O)[C@H](CCCCN)NC(=O)[C@H](Cc2c[nH]c3ccccc23)NC(=O)[C@H](Cc2ccccc2)NC(=O)[C@H](Cc2ccccc2)NC(=O)[C@H](CC(N)=O)NC(=O)[C@H](CCCCN)NC1=O [SS-14, somatostatin-14, reference compound] | – | – | – | 3 ± 1 | 12 ± 1 | – | – | – | – | – | – | – | – | – |
| CSCC[C@H](NC(=O)[C@H](C)NC(=O)[C@@H]1CCCN1C(=O)[C@H](CC(N)=O)NC(=O)[C@H](CO)NC(=O)[C@H](CC(N)=O)NC(=O)[C@H](C)NC(=O)[C@@H](N)CO)C(=O)N[C@@H](C)C(=O)N1CCC[C@H]1C(=O)N[C@@H](CCCNC(=N)N)C(=O)N[C@@H](CCC(=O)O)C(=O)N[C@@H](CCCNC(=N)N)C(=O)N[C@@H](CCCCN)C(=O)N[C@@H](C)C(=O)NCC(=O)N[C@H]1CSSC[C@@H](C(=O)O)NC(=O)[C@H](CO)NC(=O)[C@H]([C@@H](C)O)NC(=O)[C@H](Cc2ccccc2)NC(=O)[C@H]([C@@H](C)O)NC(=O)[C@H](CCCCN)NC(=O)[C@H](Cc2c[nH]c3ccccc23)NC(=O)[C@H](Cc2ccccc2)NC(=O)[C@H](Cc2ccccc2)NC(=O)[C@H](CC(N)=O)NC(=O)[C@H](CCCCN)NC1=O [SS-28, somatostatin-28, reference compound] | – | – | – | 4 ± 1 | 10 ± 1 | – | – | – | – | – | – | – | – | – |
| CCN(CC)CCCC[C@@H]1NC(=O)[C@@H](Cc2c[nH]c3ccccc23)NC(=O)[C@H](Cc2ccc(O)cc2)NC(=O)[C@@H](NC(=O)[C@H](N)Cc2ccccc2)CSSC[C@@H](C(=O)N[C@@H](Cc2ccc3ccccc3c2)C(N)=O)NC(=O)[C@H]([C@@H](C)O)NC1=O [Analog #16, H2 -D-Phe-Cys-Tyr-D-TrP-Lys(diEt)-Thr-Cys-Nal-NH2] (H-[dF]CY[dW][Lys(Et2)]TC[2Nal]-NH2; disulfide 2-7) | 11 ± 2 | 73 ± 15 | – | 5 ± 1 | 12 ± 1 | > 10 | 7.21 ± 2.79 | 7.2 to 9.8 | 3.95 ± 0.509 | 18 | 3.9 to 4.4 | > 10 | 1.09 ± 0.038 | – |
| CC(C)[C@@H]1NC(=O)[C@H](CCCCN)NC(=O)[C@@H](Cc2c[nH]c3ccccc23)NC(=O)[C@H](Cc2ccc3ccccc3c2)NC(=O)[C@@H](NC(=O)[C@H](N)Cc2ccccc2)CSSC[C@@H](C(=O)N[C@H](C(N)=O)[C@@H](C)O)NC1=O [Analog #18] (H-[dF]C[2Nal][dW]KVCT-NH2; disulfide 2-7) | 11 ± 1 | 143 ± 11 | – | – | – | – | – | > 10 | – | – | 14 to 19 | – | 8.32 ± 0.957 | no effect |
| C[C@@H](O)[C@H](NC(=O)[C@@H]1CSSC[C@H](NC(=O)[C@H](N)Cc2ccc3ccccc3c2)C(=O)N[C@@H](Cc2ccc(O)cc2)C(=O)N[C@H](Cc2c[nH]c3ccccc23)C(=O)N[C@@H](CCCCN)C(=O)N[C@@H]([C@@H](C)O)C(=O)N1)C(N)=O [Analog #6] | 11 ± 2 | 188 ± 30 | – | 3 ± 1 | 14 ± 2 | > 10 | > 10 | – | 16.4 ± 4.46 | 69 | 14 to 19 | > 10 | 8.29 ± 2.43 | no effect |
| CC(C)[C@@H]1NC(=O)[C@H](CCCCN)NC(=O)[C@@H](Cc2c[nH]c3ccccc23)NC(=O)[C@H](Cc2ccc(O)cc2)NC(=O)[C@@H](NC(=O)[C@H](N)Cc2ccc3ccccc3c2)CSSC[C@@H](C(=O)N[C@H](C(N)=O)[C@@H](C)O)NC1=O [Analog #5] | 11 ± 2 | 179 ± 13 | 80 | 3 ± 1 | 12 ± 1 | – | – | – | – | 69 | – | – | – | no effect |
